Blank lines part the entries; values can stand above or below the compound they belong to.
Columns and labels:
[1] = molecular target: MAP kinase-interacting serine/threonine-protein kinase 1 (Homo sapiens) (UniProt Q9BUB5); experiment: Selectivity interaction (Kinase panel (Z-LYTE Assay)) EUB0001632a MKNK1; conditions: at 10 µM
[2] = molecular target: Wee1-like protein kinase 2 (Homo sapiens) (UniProt P0C1S8); experiment: Selectivity interaction (KinomeScan (DiscoverX)) EUB0000607a WEE2; conditions: at 10 µM
[3] = molecular target: STE20-like serine/threonine-protein kinase (Homo sapiens, UniProt Q9H2G2); experiment: Selectivity interaction (ActivX KiNativ screen (kinase selectivity in THP-1 cell lysates)) EUB0000639a SLK; assay type: subcellular; conditions: lysate, at 0.01 µM
[4] = molecular target: eIF-2-alpha kinase GCN2 (Homo sapiens) (UniProt Q9P2K8); experiment: Selectivity interaction (ActivX KiNativ screen (kinase selectivity in THP-1 cell lysates)) EUB0000639a EIF2AK4; assay type: subcellular; conditions: lysate, at 1 µM
[5] = molecular target: T1, Phosphatidylinositol 5-phosphate 4-kinase type-2 gamma (Homo sapiens) (UniProt Q8TBX8); experiment: Selectivity interaction (ActivX KiNativ screen (kinase selectivity in THP-1 cell lysates)) EUB0000639a PIP4K2C; assay type: subcellular; conditions: lysate, at 0.2 µM
T1 sequence (whole entry): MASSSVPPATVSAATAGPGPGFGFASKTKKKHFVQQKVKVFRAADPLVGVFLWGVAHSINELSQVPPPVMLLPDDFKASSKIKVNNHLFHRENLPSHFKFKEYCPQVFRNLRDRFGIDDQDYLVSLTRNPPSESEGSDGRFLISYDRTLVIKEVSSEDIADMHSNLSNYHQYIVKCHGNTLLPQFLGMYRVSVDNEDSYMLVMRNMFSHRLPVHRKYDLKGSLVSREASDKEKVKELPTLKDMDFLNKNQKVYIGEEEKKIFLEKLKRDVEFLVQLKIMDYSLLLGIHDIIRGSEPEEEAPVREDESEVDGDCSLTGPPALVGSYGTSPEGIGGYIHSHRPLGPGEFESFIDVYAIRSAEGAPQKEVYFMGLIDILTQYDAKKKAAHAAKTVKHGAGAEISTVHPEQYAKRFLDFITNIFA

[6] = molecular target: Platelet-derived growth factor receptor beta (Homo sapiens, UniProt P09619); experiment: Selectivity interaction (ProQinase) EUB0000171b PDGFRB
[7] = molecular target: Death-associated protein kinase 1 (Homo sapiens, UniProt P53355); experiment: Selectivity interaction (Kinase panel (DSF assay)) EUB0001559a DAPK1
[8] = molecular target: Serine/threonine-protein kinase 24 (Homo sapiens) (UniProt Q9Y6E0); experiment: Selectivity interaction (Kinase panel (DSF assay)) EUB0001558a STK24
[9] = molecular target: Histone-lysine N-methyltransferase PRDM9 (Homo sapiens) (UniProt Q9NQV7); conditions: at 1 µM
[10] = molecular target: Polycomb protein SUZ12 (Homo sapiens) (UniProt Q15022); conditions: at 10 µM
[11] = molecular target: T2, cAMP-dependent protein kinase catalytic subunit PRKX (Homo sapiens) (UniProt P51817); experiment: Selectivity interaction (KinomeScan (DiscoverX)) EUB0000229b PRKX; conditions: at 10 µM
T2 sequence (whole entry): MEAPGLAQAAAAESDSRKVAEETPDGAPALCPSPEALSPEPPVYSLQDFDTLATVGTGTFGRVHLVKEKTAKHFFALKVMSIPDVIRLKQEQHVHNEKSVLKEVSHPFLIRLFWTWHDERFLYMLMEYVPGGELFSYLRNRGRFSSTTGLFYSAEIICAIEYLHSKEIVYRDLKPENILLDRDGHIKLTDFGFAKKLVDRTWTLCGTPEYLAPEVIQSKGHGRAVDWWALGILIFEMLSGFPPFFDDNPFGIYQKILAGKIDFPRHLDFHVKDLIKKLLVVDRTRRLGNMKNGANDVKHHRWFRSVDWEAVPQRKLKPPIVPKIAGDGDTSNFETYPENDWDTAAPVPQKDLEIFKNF

[12] = molecular target: T3, Serine/threonine-protein kinase LATS1 (Homo sapiens) (UniProt O95835); experiment: Selectivity interaction (KinomeScan (DiscoverX)) EUB0000092b LATS1; conditions: at 10 µM
T3 sequence (whole entry): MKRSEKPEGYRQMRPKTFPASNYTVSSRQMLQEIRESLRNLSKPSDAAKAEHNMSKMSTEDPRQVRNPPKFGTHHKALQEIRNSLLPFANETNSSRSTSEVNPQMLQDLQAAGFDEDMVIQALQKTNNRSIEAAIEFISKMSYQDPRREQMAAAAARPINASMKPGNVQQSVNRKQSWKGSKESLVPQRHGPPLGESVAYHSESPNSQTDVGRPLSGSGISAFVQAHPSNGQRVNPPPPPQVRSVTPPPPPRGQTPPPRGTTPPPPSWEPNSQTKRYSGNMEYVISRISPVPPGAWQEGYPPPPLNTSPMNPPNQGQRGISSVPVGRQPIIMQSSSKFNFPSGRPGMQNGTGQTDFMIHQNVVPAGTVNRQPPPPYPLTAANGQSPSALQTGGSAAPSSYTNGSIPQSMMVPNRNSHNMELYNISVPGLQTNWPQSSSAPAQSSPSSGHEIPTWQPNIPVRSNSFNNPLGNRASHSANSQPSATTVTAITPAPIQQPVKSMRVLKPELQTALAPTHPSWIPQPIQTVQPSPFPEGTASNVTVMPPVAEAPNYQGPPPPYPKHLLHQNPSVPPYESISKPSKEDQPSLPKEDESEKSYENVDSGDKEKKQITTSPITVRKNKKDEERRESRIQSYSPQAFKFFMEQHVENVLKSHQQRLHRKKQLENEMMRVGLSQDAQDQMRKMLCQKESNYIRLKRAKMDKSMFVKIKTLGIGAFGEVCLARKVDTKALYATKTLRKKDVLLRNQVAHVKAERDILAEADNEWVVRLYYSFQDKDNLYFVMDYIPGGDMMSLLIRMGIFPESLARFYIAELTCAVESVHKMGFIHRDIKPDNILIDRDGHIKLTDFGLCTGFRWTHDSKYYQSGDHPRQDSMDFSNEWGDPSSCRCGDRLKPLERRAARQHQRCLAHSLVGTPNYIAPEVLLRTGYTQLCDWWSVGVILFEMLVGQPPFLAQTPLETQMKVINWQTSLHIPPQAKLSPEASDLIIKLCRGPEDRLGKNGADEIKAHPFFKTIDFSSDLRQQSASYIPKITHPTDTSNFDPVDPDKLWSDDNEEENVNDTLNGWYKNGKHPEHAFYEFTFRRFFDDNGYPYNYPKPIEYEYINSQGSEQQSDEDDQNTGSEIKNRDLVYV

[13] = molecular target: Serine/threonine-protein kinase MRCK alpha (Homo sapiens) (UniProt Q5VT25); experiment: Selectivity interaction (KinomeScan (DiscoverX)) EUB0000618a CDC42BPA; conditions: at 10 µM

Sequence of Platelet-derived growth factor receptor beta (P09619 whole entry): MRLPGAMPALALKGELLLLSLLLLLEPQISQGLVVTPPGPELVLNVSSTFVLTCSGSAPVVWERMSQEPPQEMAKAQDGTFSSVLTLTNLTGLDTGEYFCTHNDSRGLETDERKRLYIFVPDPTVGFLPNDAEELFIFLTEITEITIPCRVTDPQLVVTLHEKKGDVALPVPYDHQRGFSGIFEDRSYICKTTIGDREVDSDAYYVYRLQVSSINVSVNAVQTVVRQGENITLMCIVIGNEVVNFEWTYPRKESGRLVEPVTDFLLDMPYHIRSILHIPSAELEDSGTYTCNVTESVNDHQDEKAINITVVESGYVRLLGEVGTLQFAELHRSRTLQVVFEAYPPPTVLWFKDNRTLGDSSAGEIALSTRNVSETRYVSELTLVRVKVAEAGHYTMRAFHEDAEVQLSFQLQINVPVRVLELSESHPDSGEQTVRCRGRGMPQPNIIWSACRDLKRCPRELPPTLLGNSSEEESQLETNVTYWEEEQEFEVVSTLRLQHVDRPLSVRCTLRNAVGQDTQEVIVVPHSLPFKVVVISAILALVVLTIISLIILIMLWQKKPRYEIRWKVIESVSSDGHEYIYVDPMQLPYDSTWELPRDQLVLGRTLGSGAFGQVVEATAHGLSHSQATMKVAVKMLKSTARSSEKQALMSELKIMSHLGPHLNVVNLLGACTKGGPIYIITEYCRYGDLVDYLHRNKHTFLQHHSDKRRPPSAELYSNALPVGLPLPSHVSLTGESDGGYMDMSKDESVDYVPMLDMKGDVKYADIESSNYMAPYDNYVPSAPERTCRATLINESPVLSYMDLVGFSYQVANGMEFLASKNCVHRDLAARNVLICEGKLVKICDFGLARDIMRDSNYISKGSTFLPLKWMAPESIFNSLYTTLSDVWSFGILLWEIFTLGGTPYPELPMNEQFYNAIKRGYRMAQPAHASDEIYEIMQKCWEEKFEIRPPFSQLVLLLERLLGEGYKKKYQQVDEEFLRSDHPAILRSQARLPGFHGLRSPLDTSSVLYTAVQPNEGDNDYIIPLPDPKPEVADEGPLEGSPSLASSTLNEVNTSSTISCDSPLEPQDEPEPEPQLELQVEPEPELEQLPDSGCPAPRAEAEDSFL
Sequence of Histone-lysine N-methyltransferase PRDM9 (Homo sapiens) (Q9NQV7 whole entry): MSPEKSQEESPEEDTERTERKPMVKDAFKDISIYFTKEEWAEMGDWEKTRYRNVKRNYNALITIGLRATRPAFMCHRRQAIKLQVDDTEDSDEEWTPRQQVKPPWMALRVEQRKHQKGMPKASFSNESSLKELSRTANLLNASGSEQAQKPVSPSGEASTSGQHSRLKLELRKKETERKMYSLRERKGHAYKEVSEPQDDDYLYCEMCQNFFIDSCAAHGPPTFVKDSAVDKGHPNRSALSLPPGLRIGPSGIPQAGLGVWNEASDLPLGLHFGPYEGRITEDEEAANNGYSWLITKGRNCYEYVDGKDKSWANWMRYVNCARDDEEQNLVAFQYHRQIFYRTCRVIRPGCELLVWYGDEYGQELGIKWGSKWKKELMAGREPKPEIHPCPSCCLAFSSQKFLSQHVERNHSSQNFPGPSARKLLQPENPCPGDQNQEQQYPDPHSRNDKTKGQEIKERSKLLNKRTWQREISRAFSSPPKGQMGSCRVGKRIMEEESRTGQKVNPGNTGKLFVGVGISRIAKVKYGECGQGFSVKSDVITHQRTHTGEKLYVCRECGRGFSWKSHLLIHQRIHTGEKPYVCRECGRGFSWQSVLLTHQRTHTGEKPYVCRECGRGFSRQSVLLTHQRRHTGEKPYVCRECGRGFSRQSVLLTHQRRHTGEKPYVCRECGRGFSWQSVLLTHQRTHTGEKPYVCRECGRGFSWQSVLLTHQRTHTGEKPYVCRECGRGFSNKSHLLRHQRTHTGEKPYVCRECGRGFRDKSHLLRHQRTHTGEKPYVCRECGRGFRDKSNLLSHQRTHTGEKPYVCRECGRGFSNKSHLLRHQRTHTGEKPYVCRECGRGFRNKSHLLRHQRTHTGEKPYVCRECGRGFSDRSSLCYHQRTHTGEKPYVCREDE
Sequence of MAP kinase-interacting serine/threonine-protein kinase 1 (Homo sapiens) (Q9BUB5 whole entry, looked up): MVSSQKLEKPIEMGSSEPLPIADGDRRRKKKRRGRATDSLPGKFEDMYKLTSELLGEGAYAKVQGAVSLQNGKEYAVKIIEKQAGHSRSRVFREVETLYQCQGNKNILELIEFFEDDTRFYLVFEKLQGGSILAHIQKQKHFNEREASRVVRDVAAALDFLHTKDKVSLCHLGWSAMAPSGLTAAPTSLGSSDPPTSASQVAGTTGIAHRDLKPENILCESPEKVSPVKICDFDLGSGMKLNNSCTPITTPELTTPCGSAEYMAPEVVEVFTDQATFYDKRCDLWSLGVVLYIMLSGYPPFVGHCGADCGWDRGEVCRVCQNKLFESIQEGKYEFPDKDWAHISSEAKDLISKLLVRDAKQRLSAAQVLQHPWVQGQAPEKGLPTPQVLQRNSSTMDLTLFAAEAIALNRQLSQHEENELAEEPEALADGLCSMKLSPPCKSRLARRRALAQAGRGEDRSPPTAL
Sequence of Polycomb protein SUZ12 (Homo sapiens) (Q15022 whole entry): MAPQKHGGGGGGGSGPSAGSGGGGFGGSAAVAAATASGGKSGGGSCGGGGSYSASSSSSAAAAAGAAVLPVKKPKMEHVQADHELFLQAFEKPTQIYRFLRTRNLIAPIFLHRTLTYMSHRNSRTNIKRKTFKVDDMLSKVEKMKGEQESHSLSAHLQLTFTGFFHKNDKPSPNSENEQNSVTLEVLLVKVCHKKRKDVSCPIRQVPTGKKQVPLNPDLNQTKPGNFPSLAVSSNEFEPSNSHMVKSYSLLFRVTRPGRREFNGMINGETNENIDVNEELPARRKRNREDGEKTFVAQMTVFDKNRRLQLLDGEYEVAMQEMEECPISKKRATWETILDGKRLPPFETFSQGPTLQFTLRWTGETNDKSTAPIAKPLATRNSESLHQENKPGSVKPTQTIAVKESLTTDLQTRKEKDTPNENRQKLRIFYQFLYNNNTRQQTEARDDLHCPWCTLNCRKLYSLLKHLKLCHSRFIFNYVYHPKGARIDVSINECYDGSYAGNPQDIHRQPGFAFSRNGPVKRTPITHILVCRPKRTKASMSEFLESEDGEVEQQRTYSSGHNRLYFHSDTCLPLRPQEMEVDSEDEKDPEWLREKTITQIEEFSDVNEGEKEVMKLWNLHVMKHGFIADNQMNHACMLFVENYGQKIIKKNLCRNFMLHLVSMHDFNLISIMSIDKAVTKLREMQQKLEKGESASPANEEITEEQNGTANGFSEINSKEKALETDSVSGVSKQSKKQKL
Sequence of Serine/threonine-protein kinase 24 (Homo sapiens) (Q9Y6E0 whole entry, looked up): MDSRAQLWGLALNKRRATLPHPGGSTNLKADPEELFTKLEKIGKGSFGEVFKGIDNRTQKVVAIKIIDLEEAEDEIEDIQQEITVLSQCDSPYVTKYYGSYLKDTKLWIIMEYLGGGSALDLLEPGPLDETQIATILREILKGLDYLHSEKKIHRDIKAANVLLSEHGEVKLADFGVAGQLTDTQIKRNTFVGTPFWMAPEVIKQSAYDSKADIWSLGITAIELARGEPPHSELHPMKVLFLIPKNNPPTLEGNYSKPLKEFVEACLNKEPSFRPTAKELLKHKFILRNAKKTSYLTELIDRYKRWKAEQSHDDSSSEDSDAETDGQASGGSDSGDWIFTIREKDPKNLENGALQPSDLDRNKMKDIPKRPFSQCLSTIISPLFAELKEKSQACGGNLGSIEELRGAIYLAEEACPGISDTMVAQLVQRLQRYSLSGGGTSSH
Sequence of Wee1-like protein kinase 2 (Homo sapiens) (P0C1S8 whole entry, looked up): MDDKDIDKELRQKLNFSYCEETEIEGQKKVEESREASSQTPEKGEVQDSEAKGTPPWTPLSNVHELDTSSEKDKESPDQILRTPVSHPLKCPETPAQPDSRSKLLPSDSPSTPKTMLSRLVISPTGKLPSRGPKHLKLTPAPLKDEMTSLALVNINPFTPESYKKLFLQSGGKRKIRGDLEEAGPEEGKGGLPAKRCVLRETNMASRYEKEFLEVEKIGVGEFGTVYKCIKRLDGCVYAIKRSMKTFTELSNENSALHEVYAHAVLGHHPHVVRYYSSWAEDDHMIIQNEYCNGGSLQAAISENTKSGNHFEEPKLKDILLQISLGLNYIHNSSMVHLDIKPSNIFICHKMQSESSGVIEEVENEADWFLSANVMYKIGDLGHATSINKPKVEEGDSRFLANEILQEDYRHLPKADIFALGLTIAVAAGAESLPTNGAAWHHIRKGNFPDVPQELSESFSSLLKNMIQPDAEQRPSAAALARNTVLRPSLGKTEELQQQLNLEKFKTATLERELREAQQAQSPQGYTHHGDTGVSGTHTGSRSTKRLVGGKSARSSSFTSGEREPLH

% of control [1]: 2.99%
Compound: Cn1cc(-n2cnc3c(NCc4nc5cc(Cl)c(Cl)cc5[nH]4)nc(N4CCOCC4)nc32)cn1

Compound: CNC(=O)Nc1ccc(-c2nc(N3CC4CCC(C3)O4)c3cnn(C4CCC5(CC4)OCCO5)c3n2)cc1
% of control [2]: 100%

% of inhibition [3]: -0.7%
% of inhibition [4]: 3.6%
% of inhibition [5]: 51.3%
Compound: CC[C@@H]1[C@H](F)C(=O)N[C@@H]1COc1nccc2cc(C(N)=O)c(OC)cc12 [ZIMLOVISERTIB]

% of control ([6]; at 1 µM): 74%
% of control ([6]; at 5 µM): 46%
Compound: C=CC(=O)Nc1cccc(C(=O)Nc2ccc(Nc3cc(-c4[nH]c(SC)nc4C)ccn3)cc2)c1

Compound: CN(C(=O)c1cnn2cccnc12)c1cc2c(cc1N1CCOCC1)C(=O)N(C[C@@H](F)C(C)(C)O)C2
dTM [7]: -0.3 K

Compound: CC(C)(O)[C@H](F)CN1Cc2cc(NC(=O)c3cnn4cccnc34)c(N3CCOCC3)cc2C1=O
dTM [8]: 0.1 K

% activity [9]: > 90%
% activity [10]: > 90%
Compound: CNCCN1CCC(c2cc(CN(C)C(=O)c3cccc(Oc4ccccc4)c3)ccn2)CC1

Compound: COc1cc(N(C)c2ccnc3ccc(C(F)(F)F)cc23)cc(OC)c1OC
% binding [11]: 72%

Compound: CCC(=O)N1CCN(c2ccc(-n3c(=O)ccc4cnc5ccc(-c6cnc7ccccc7c6)cc5c43)cc2C(F)(F)F)CC1
% of control [12]: 100%

Compound: O[C@H]1CC[C@H](Nc2ncc3nc(Nc4c(F)cc(F)cc4F)n([C@H]4CCOC4)c3n2)CC1
% of control [13]: 100%
